System: KRAS patient-derived spheroids with HUVEC/MSC, viability
Test: Anticancer human tumor 519858-162-T-J1-PDC patient-derived colon adenocarcinoma cell line growth inhibition [KRAS2]
Conditions: for IC50: curve of first compound; for viability, T/C: stronger effect = lower value
Source text: Multicellular complex tumor spheroid response to RAS pathway inhibitors in combination with a targeted agents in patient-derived cell lines with oncogenic KRAS variants from multiple cancer types
A high-throughput screen of multi-cell type tumor spheroids was designed to identify active combinations of targeted small molecules and KRAS pathway inhibitors. Complex spheroids include a stromal component modeled by human endothelial cells (HUVEC) and fibroblasts modeled by human mesenchymal stem cells (MSCs). The concentration ranges selected for each drug and investigational agent were based upon clinically achievable concentrations if the clinical Cmax of the agent was known.
Compounds. The drugs and investigational agents: BI-3406 (NSC825286), BAY-293 (NSC824723), batoprotafib (TNO155; NSC825523), sotorasib (AMG 510; NSC818433), MRTX1257 (NSC819558), elimusertib (BAY 1895344; NSC800525), molibresib (GSK525762; NSC774829), temuterkib (LY3214996; NSC803410), venetoclax (NSC766270), alisertib (NSC759677), olaparib (NSC753686), talazoparib (NSC767125), erdafitinib (NSC781556), ipatasertib (NSC767898), cabozantinib (NSC761068), nintedanib (NSC756659), abemaciclib (NSC768073), docetaxel (NSC628503), trametinib (NSC758246), and sapanisertib (NSC764658) were obtained from the National Cancer Institute (NCI) Developmental Therapeutics Program Chemical Repository. The FDA-approved anticancer drug set is available from the Developmental Therapeutics Program. […] The stock solutions were prepared in dimethyl sulfoxide (DMSO, Sigma-Aldrich, St. Louis, MO, cat. D2650) at 800-fold the tested concentration and stored at -70 degrees C prior to their use. All drugs and investigational agents were tested over a range starting from a high concentration at or near the clinical Cmax and decreasing in half-log increments. If the clinical Cmax for an agent had not been determined, the highest concentration tested was 10 microM.
Cell Culture. All cells were maintained in an incubator at 37 degrees C and 5% CO2 with 95% humidity. The PDC lines were cultured according to standard operating procedures established by the NCI PDMR (https://pdmr.cancer.gov/sops/default.htm). Briefly, all PDCs were thawed and cultured in Matrigel-coated flasks prepared with a working solution of 1X Ham's F-12 nutrient mix, without supplementation (Invitrogen, Waltham, MA, cat. 11765054), 100 U/mL penicillin-streptomycin (Invitrogen, cat. 15140122), and 2.5% Matrigel (Corning Inc., Corning, NY, cat. 354248) for the first three passages. All PDCs were cultured in complete DMEM/F-12 media containing advanced DMEM/F-12 (Invitrogen, cat. 12634028), 4.9% defined fetal bovine serum, heat inactivated (HyClone Laboratories Inc., Logan, UT, cat. SH30070.03HI), 389 ng/mL hydrocortisone (Sigma-Aldrich, cat. H4001), 9.7 ng/mL human EGF recombinant protein (Invitrogen, cat. PHG0313), 23.4 microg/mL adenine (Sigma-Aldrich, cat. A2786), 97.3 U/mL penicillin-streptomycin (Invitrogen, cat. 15140122), 1.9 mM L-glutamine (Invitrogen, cat. 25030081), and 9.7 microM Y-27632 dihydrochloride (Tocris Bioscience, Bristol, United Kingdom, cat. 1254). The PDCs were cultured in complete DMEM/F12 media without 9.7 microM Y-27632 dihydrochloride for at least two passages prior to the screen. The established cell line HOP-62 was cultured in RPMI 1640 medium, HEPES (Invitrogen, cat. 22400105) with 10% defined fetal bovine serum (HyClone Laboratories Inc., cat. SH30070.03) and 2 mM L-glutamine (Invitrogen, cat. 25030081). The pooled donor HUVEC were cultured in endothelial cell growth medium 2 (PromoCell, Heidelberg, Germany, cat. C-22011) and the hMSC were cultured in mesenchymal stem cell growth medium 2 (PromoCell, cat. C-28009). For all experiments, HUVEC and hMSC were used at passages </=5, while the malignant cell lines were used at passages </=15. […]

[1] = second compound 0.1 µM, first compound 0.0316 µM
[2] = second compound 0.1 µM, first compound 0.1 µM
[3] = second compound 0.316 µM, first compound 0.0316 µM
[4] = second compound 0.316 µM, first compound 0.1 µM
[5] = second compound 1 µM, first compound 0.0316 µM
[6] = second compound 1 µM, first compound 0.1 µM
[7] = second compound 3.16 µM, first compound 0.0316 µM
[8] = second compound 3.16 µM, first compound 0.1 µM
[9] = second compound 10 µM, first compound 0.0316 µM
[10] = second compound 10 µM, first compound 0.1 µM
[11] = second compound 0.1 µM, first compound 0.316 µM
[12] = second compound 0.1 µM, first compound 1 µM
[13] = second compound 0.1 µM, first compound 3.16 µM
[14] = second compound 0.1 µM, first compound 10 µM
[15] = second compound 0.316 µM, first compound 0.316 µM
[16] = second compound 0.316 µM, first compound 1 µM
[17] = second compound 0.316 µM, first compound 3.16 µM
[18] = second compound 0.316 µM, first compound 10 µM
[19] = second compound 1 µM, first compound 0.316 µM
[20] = second compound 1 µM, first compound 1 µM
[21] = second compound 1 µM, first compound 3.16 µM
[22] = second compound 1 µM, first compound 10 µM
[23] = second compound 3.16 µM, first compound 0.316 µM
[24] = second compound 3.16 µM, first compound 1 µM
[25] = second compound 3.16 µM, first compound 3.16 µM
[26] = second compound 3.16 µM, first compound 10 µM
[27] = second compound 10 µM, first compound 0.316 µM
[28] = second compound 10 µM, first compound 1 µM
[29] = second compound 10 µM, first compound 3.16 µM
[30] = second compound 10 µM, first compound 10 µM
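Also: compound exposure lasted seven days before readout.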
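For viability, T/C in this document: 100% = DMSO vehicle control viability.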

Row | SMILES | IC50 (second compound 0.1 µM) | IC50 (second compound 0.316 µM) | IC50 (second compound 1 µM) | IC50 (second compound 3.16 µM) | IC50 (second compound 10 µM) | viability, T/C [1] | viability, T/C [2] | viability, T/C [3] | viability, T/C [4] | viability, T/C [5] | viability, T/C [6] | viability, T/C [7] | viability, T/C [8] | viability, T/C [9] | viability, T/C [10] | viability, T/C [11] | viability, T/C [12] | viability, T/C [13] | viability, T/C [14] | viability, T/C [15] | also measured
1 | CN(C)C/C=C/C(=O)Nc1cc2c(Nc3ccc(F)c(Cl)c3)ncnc2cc1O[C@H]1CCOC1 + COc1cc2nc(C)nc(NC(C)c3cc(N)cc(C(F)(F)F)c3)c2cc1OC1CCOC1 | > 0.1 µM | > 0.1 µM | > 0.1 µM | 0.0813 µM | > 0.1 µM | 78.7% | 81.2% | 90.8% | 98.9% | 95.5% | 91.2% | 75.5% | 44.5% | 70.3% | 62.3% | – | – | – | – | – | viability, T/C (second compound 0.1 µM, first compound 0.000316 µM): 87%; viability, T/C (second compound 0.1 µM, first compound 0.001 µM): 91.3%; viability, T/C (second compound 0.1 µM, first compound 0.00316 µM): 92.7%; viability, T/C (second compound 0.1 µM, first compound 0.01 µM): 92.6%; viability, T/C (second compound 0.316 µM, first compound 0.000316 µM): 93%; viability, T/C (second compound 0.316 µM, first compound 0.001 µM): 73.7%; viability, T/C (second compound 0.316 µM, first compound 0.00316 µM): 73.4%; viability, T/C (second compound 0.316 µM, first compound 0.01 µM): 73.5%; viability, T/C (second compound 1 µM, first compound 0.000316 µM): 138%; viability, T/C (second compound 1 µM, first compound 0.001 µM): 146%; viability, T/C (second compound 1 µM, first compound 0.00316 µM): 101%; viability, T/C (second compound 1 µM, first compound 0.01 µM): 101%; viability, T/C (second compound 3.16 µM, first compound 0.000316 µM): 85.6%; viability, T/C (second compound 3.16 µM, first compound 0.001 µM): 80.7%; viability, T/C (second compound 3.16 µM, first compound 0.00316 µM): 90.3%; viability, T/C (second compound 3.16 µM, first compound 0.01 µM): 88.3%; viability, T/C (second compound 10 µM, first compound 0.000316 µM): 73.2%; viability, T/C (second compound 10 µM, first compound 0.001 µM): 62.5%; viability, T/C (second compound 10 µM, first compound 0.00316 µM): 76.9%; viability, T/C (second compound 10 µM, first compound 0.01 µM): 88.3%
2 | CC(C)NCC(C(=O)N1CCN(c2ncnc3c2C(C)CC3O)CC1)c1ccc(Cl)cc1 (stereo not given) + C=CC(=O)N1CCN(c2nc(=O)n(-c3c(C)ccnc3C(C)C)c3nc(-c4c(O)cccc4F)c(F)cc23)C(C)C1 | > 10 µM | > 10 µM | > 10 µM | > 10 µM | > 10 µM | 95.1% | 103% | 95.3% | 83.3% | 68.7% | 105% | 92.8% | 90.3% | 85.9% | 73.8% | 65.2% | 69% | 111% | 93.2% | 86.5% | viability, T/C [16]: 91.9%; viability, T/C [17]: 99.1%; viability, T/C [18]: 119%; viability, T/C [19]: 96.9%; viability, T/C [20]: 102%; viability, T/C [21]: 77.8%; viability, T/C [22]: 72.7%; viability, T/C [23]: 87.5%; viability, T/C [24]: 67%; viability, T/C [25]: 82.7%; viability, T/C [26]: 87.5%; viability, T/C [27]: 64.1%; viability, T/C [28]: 73.9%; viability, T/C [29]: 90.8%; viability, T/C [30]: 75%
3 | CC1OCC2(CCN(c3cnc(Sc4ccnc(N)c4Cl)c(N)n3)CC2)C1N (stereo not given) + C=CC(=O)N1CCN(c2nc(=O)n(-c3c(C)ccnc3C(C)C)c3nc(-c4c(O)cccc4F)c(F)cc23)C(C)C1 | 7.23 µM | > 10 µM | 3.16 µM | > 10 µM | 3.92 µM | 94.2% | 77.3% | 90.6% | 76% | 81.6% | 68.6% | 67.2% | 101% | 56% | 73% | 68.5% | 80.4% | 63.1% | 43.7% | 73.1% | viability, T/C [16]: 59.9%; viability, T/C [17]: 79.6%; viability, T/C [18]: 63.3%; viability, T/C [19]: 84.3%; viability, T/C [20]: 50.3%; viability, T/C [21]: 54%; viability, T/C [22]: 49.2%; viability, T/C [23]: 75.7%; viability, T/C [24]: 62.5%; viability, T/C [25]: 53.3%; viability, T/C [26]: 65.4%; viability, T/C [27]: 72.3%; viability, T/C [28]: 55.6%; viability, T/C [29]: 56%; viability, T/C [30]: 31.2%
